Results taken from paper PMC8413292, “Small-molecule polymerase inhibitor protects non-human primates from measles and reduces shedding” (Nature Communications, 2021).
“And” between values parts separate entries of the source, which are not always exact repeats. Identical values can stand only once. Like-named read-outs stand apart in the source and are kept apart here.

What was measured:
MeV = details: depending on the MeV-strain; read-out: in vitro EC50; cited from earlier work
[1] = tested on: MV/FrankfurtMain.DEU/17.11 (genotype D8); assay: Rectal temperature of MeV-infected squirrel monkeys; format: in vivo, squirrel monkeys (Saimiri sciureus); details: for Temperature: individual animals
Experimental: (§1) All animal experiments were carried out in compliance with the regulations of German animal protection laws and authorized by the Regierungspräsidium Darmstadt, Germany (Dezernat V54 – Veterinärwesen und Verbraucherschutz, Hilpertstrasse 31, 64295 Darmstadt). Adult male and female squirrel monkeys (Saimiri sciureus) were obtained from BioPRIM, 31450 Baziege, or CNRS 0846 Primatologie, 13790 Rousset, France. Each experimental group was housed in a separate room, and animals of the same sex were caged together within the respective groups. For the single-dose pharmacokinetic experiment, animals were anesthetized, and the drug was given through a stomach tube at a concentration of 50 mg/kg bodyweight. Blood samples were collected after 15, 30, and 60 min, and 2, 3, 6, and 24 h. For efficacy assessment, groups of 6 animals were left untreated or treated with 50 mg/kg of ERDRP-0519 twice daily for two weeks, starting either 12 h before or 3 or 7 days after intranasal infection with 10^6 TCID50 of MV/FrankfurtMain.DEU/17.11. Clinical signs, rectal temperature, and weight were recorded daily, and throat swabs and blood samples were collected before infection and twice weekly thereafter. On day 21 post-infection, the animals were euthanized, necropsied, and samples were collected for histological analysis.

[2] = Single-dose oral pharmacokinetic study in squirrel monkeys (LC/MS/MS serum concentrations); format: in vivo, squirrel monkeys (Saimiri sciureus); details: for tmax: 50 mg/kg oral (intragastric) single dose
Experimental: as §1
(§2) Drug concentrations were determined using an internal standard and a reversed phase isocratic HPLC method with positive ion electrospray ionization (ESI) mass spectrometry detection (LC/MS/MS) on an AB-SCIEX API 5500 MS/MS instrument (5 μl injection volume). Pharmacokinetic parameters were estimated using WinNonlin 5.3 (Pharsight).

[3] = tested on: canine distemper virus (CDV); details: lethal CDV-ferret model; cited from earlier work
[4] = Trough serum concentration during 14-day b.i.d. oral treatment of infected squirrel monkeys; details: for ERDRP-0519 trough serum concentration: 50 mg/kg b.i.d. oral
Experimental: as §1, §2

[5] = both sexes, monkey, serum, squirrel monkeys, 50 mg/kg oral single dose, n = 3

SMILES: Cn1nc(C(F)(F)F)cc1C(=O)Nc1ccc(S(=O)(=O)N2CCCC[C@H]2CCN2CCOCC2)cc1 [ERDRP-0519]
- EC50 (MeV): 70 to 300 nM
- Temperature, Mean Diff, untreated vs. prophylactic ([1]; Row 1 (day 0)): -1.35
- Temperature, Mean Diff, untreated vs. therapeutic (d3) ([1]; Row 1 (day 0)): -0.9667
- Temperature, Mean Diff, untreated vs. therapeutic (d7) ([1]; Row 1 (day 0)): -0.7167
- Temperature, Mean Diff, untreated vs. prophylactic ([1]; Row 2 (day 3)): 0.5833
- Temperature, Mean Diff, untreated vs. therapeutic (d3) ([1]; Row 2 (day 3)): -0.05
- Temperature, Mean Diff, untreated vs. therapeutic (d7) ([1]; Row 2 (day 3)): -0.03333
- Temperature, Mean Diff, untreated vs. prophylactic ([1]; Row 3 (day 7)): 1.2
- Temperature, Mean Diff, untreated vs. therapeutic (d3) ([1]; Row 3 (day 7)): 0.5167
- Temperature, Mean Diff, untreated vs. therapeutic (d7) ([1]; Row 3 (day 7)): 0.4333
- Temperature, Mean Diff, untreated vs. prophylactic ([1]; Row 4 (day 10)): 0.5333
- Temperature, Mean Diff, untreated vs. therapeutic (d3) ([1]; Row 4 (day 10)): 0.3667
- Temperature, Mean Diff, untreated vs. therapeutic (d7) ([1]; Row 4 (day 10)): 0.5
- Temperature, Mean Diff, untreated vs. prophylactic ([1]; Row 5 (day 14)): -0.25
- Temperature, Mean Diff, untreated vs. therapeutic (d3) ([1]; Row 5 (day 14)): 0.4
- Temperature, Mean Diff, untreated vs. therapeutic (d7) ([1]; Row 5 (day 14)): 0.3
- Temperature, Mean Diff, untreated vs. prophylactic ([1]; Row 6 (day 17)): 0.1667
- Temperature, Mean Diff, untreated vs. therapeutic (d3) ([1]; Row 6 (day 17)): 0.24
- Temperature, Mean Diff, untreated vs. therapeutic (d7) ([1]; Row 6 (day 17)): 0.2333
- Temperature, Mean Diff, untreated vs. prophylactic ([1]; Row 7 (day 21)): -0.3167
- Temperature, Mean Diff, untreated vs. therapeutic (d3) ([1]; Row 7 (day 21)): -0.1
- Temperature, Mean Diff, untreated vs. therapeutic (d7) ([1]; Row 7 (day 21)): -0.1167
- Temperature ([1]; prophylactic group, day 0): 38.9 °C and 38.6 °C and 38.7 °C (2×) and 39.3 °C and 38.2 °C
- Temperature ([1]; prophylactic group, day 3): 38.6 °C and 38.5 °C and 39.1 °C and 39 °C and 37.5 °C and 38.8 °C
- Temperature ([1]; prophylactic group, day 7): 39.3 °C (2×) and 38.5 °C and 38.7 °C and 38.8 °C and 37.3 °C
- Temperature ([1]; prophylactic group, day 10): 39.8 °C and 39.3 °C (2×) and 38.9 °C and 38.3 °C and 39.7 °C
- Temperature ([1]; prophylactic group, day 14): 40.1 °C and 40.5 °C (2×) and 39.6 °C (2×) and 39.1 °C
- Temperature ([1]; prophylactic group, day 17): 39.7 °C (2×) and 39.8 °C and 39.3 °C and 38.7 °C and 40 °C
- Temperature ([1]; prophylactic group, day 21): 39.5 °C (2×) and 39.7 °C (2×) and 39.1 °C and 39.6 °C
- Temperature, group mean (Mean 2) ([1]; prophylactic, Row 1 (day 0)): 38.73
- Temperature, group mean (Mean 2) ([1]; prophylactic, Row 2 (day 3)): 38.58
- Temperature, group mean (Mean 2) ([1]; prophylactic, Row 3 (day 7)): 38.65
- Temperature, group mean (Mean 2) ([1]; prophylactic, Row 4 (day 10)): 39.22
- Temperature, group mean (Mean 2) ([1]; prophylactic, Row 5 (day 14)): 39.9
- Temperature, group mean (Mean 2) ([1]; prophylactic, Row 6 (day 17)): 39.53
- Temperature, group mean (Mean 2) ([1]; prophylactic, Row 7 (day 21)): 39.52
- mean temperatures in the distinct groups ([1]; remained within the pre-infection range, all groups): less than 40 °C
- Temperature ([1]; therapeutic (d3) group, day 0): 37.9 °C and 38.1 °C and 37.8 °C and 39.1 °C and 38.4 °C and 38.8 °C
- Temperature ([1]; therapeutic (d3) group, day 3): 39.3 °C and 38.3 °C and 39.2 °C and 40 °C and 39.4 °C and 39.1 °C
- Temperature ([1]; therapeutic (d3) group, day 7): 38.9 °C and 38.7 °C and 39.4 °C (2×) and 39.8 °C (2×)
- Temperature ([1]; therapeutic (d3) group, day 10): 38.4 °C and 39 °C and 39.3 °C and 39.6 °C and 39.7 °C and 40.3 °C
- Temperature ([1]; therapeutic (d3) group, day 14): 39.1 °C (2×) and 38.7 °C and 39.5 °C (2×) and 39.6 °C
- Temperature ([1]; therapeutic (d3) group, day 17): 39.1 °C and 39.5 °C (2×) and 39.8 °C and 39.4 °C
- Temperature ([1]; therapeutic (d3) group, day 21): 39.1 °C and 38.8 °C (2×) and 39.8 °C and 40 °C
- Temperature, group mean (Mean 2) ([1]; therapeutic (d3), Row 1 (day 0)): 38.35
- Temperature, group mean (Mean 2) ([1]; therapeutic (d3), Row 2 (day 3)): 39.22
- Temperature, group mean (Mean 2) ([1]; therapeutic (d3), Row 3 (day 7)): 39.33
- Temperature, group mean (Mean 2) ([1]; therapeutic (d3), Row 4 (day 10)): 39.38
- Temperature, group mean (Mean 2) ([1]; therapeutic (d3), Row 5 (day 14)): 39.25
- Temperature, group mean (Mean 2) ([1]; therapeutic (d3), Row 6 (day 17), N = 5): 39.46
- Temperature, group mean (Mean 2) ([1]; therapeutic (d3), Row 7 (day 21), N = 5): 39.3
- Temperature ([1]; therapeutic (d7) group, day 0): 38.4 °C and 38.3 °C and 38 °C and 37.9 °C (2×) and 38.1 °C
- Temperature ([1]; therapeutic (d7) group, day 3): 39.3 °C (2×) and 39.4 °C (2×) and 38.6 °C and 39.2 °C
- Temperature ([1]; therapeutic (d7) group, day 7): 40 °C (2×) and 39.2 °C (2×) and 38.7 °C and 39.4 °C
- Temperature, group mean (Mean 2) ([1]; therapeutic (d7), Row 1 (day 0)): 38.1
- Temperature, group mean (Mean 2) ([1]; therapeutic (d7), Row 2 (day 3)): 39.2
- Temperature, group mean (Mean 2) ([1]; therapeutic (d7), Row 3 (day 7)): 39.42
- Temperature, group mean (Mean 2) ([1]; therapeutic (d7), Row 4 (day 10)): 39.25
- Temperature, group mean (Mean 2) ([1]; therapeutic (d7), Row 5 (day 14)): 39.35
- Temperature, group mean (Mean 2) ([1]; therapeutic (d7), Row 6 (day 17)): 39.47
- Temperature, group mean (Mean 2) ([1]; therapeutic (d7), Row 7 (day 21)): 39.32
- concentration at 2 h ([2]; 50 mg/kg oral, 0.25 h post-application, individual animals, read-out: ERDRP-0519 serum conc.): 672.2 nM and 1545 nM and 3833 nM
- concentration at 2 h ([2]; 50 mg/kg oral, 0.5 h post-application, individual animals, read-out: ERDRP-0519 serum conc.): 691.1 nM and 917.7 nM and 3493 nM
- concentration at 2 h ([2]; 50 mg/kg oral, 1 h post-application, individual animals, read-out: ERDRP-0519 serum conc.): 1158 nM and 2002 nM and 3607 nM
- concentration at 2 h ([2]; 50 mg/kg oral, 2 h post-application, individual animals, read-out: ERDRP-0519 serum conc.): 3078 nM and 3040 nM
- concentration at 2 h ([2]; 50 mg/kg oral, 3 h post-application, individual animals, read-out: ERDRP-0519 serum conc.): 2889 nM and 2172 nM
- concentration at 2 h ([2]; 50 mg/kg oral, 6 h post-application, individual animals, read-out: ERDRP-0519 serum conc.): 1259.5 nM and 991.4 nM
- concentration at 2 h ([2]; 50 mg/kg oral, 24 h post-application, individual animals, read-out: ERDRP-0519 serum conc.): 39.09 nM and 98 nM and 77.99 nM
- concentration at 0 h ([2]; both sexes, monkey, serum, oral, 50 mg/kg, 50 mg/kg oral, 0 h post-application, individual animals, read-out: ERDRP-0519 serum conc.): 0 nM
- concentration at 2 h ([2]; both sexes, monkey, serum, oral, 50 mg/kg, 50 mg/kg oral, 2 h post-application, individual animals, read-out: ERDRP-0519 serum conc.): 2490 nM
- concentration at 3 h ([2]; both sexes, monkey, serum, oral, 50 mg/kg, 50 mg/kg oral, 3 h post-application, individual animals, read-out: ERDRP-0519 serum conc.): 2510 nM
- concentration at 6 h ([2]; both sexes, monkey, serum, oral, 50 mg/kg, 50 mg/kg oral, 6 h post-application, individual animals, read-out: ERDRP-0519 serum conc.): 1340 nM
- tmax ([2]; both sexes, monkey, serum, po, 50 mg/kg, squirrel monkeys, n = 3, read-out: tmax): 1.8 h
- AUC(0-inf) [2, 5]: 24.4 µM·h
- Cmax [2, 5]: 3270 nM
- half-life ([2]; both sexes, monkey, serum, squirrel monkeys, 50 mg/kg oral single dose, n = 3, read-out: t1/2 terminal elimination half-life (converted)): 4.2 h
- tmax ([2]; squirrel monkeys, n = 3, 50 mg/kg): ~ 2 h
- survival after post-exposure therapeutic dosing [3]: complete survival of all treated animals
- ERDRP-0519 trough serum concentration ([4]; 0 days post-treatment, individual animals): 0 µM and 0.05627 µM and 0.03323 µM
- ERDRP-0519 trough serum concentration ([4]; 3 days post-treatment, individual animals): 0.9158 µM and 2.53 µM and 4.796 µM and 7.1567 µM and 0.8139 µM and 7.176 µM and 3.758 µM and 1.907 µM and 3.569 µM and 2.058 µM and 2.606 µM and 7.006 µM and 2.984 µM and 1.541 µM and 2.285 µM
- ERDRP-0519 trough serum concentration ([4]; 7 days post-treatment, individual animals): 0.9763 µM and 1.28 µM and 2.908 µM and 3.21 µM and 2.4548 µM and 4.759 µM and 3.323 µM and 2.832 µM and 2.134 µM and 0.6741 µM and 2.096 µM and 3.644 µM and 0.525 µM and 0.5703 µM
- ERDRP-0519 trough serum concentration ([4]; 10 days post-treatment, individual animals): 1.654 µM and 2.228 µM and 2.832 µM and 4.4753 µM and 4.4 µM and 4.664 µM and 1.699 µM and 1.669 µM and 0.9989 µM and 0.9857 µM and 2.153 µM and 3.116 µM and 0.6949 µM and 1.573 µM and 0.608 µM
- ERDRP-0519 trough serum concentration ([4]; 14 days post-treatment, individual animals): 0.08309 µM and 0.0727 µM and 0.355 µM and 0.6534 µM and 1.862 µM and 2.172 µM and 2.474 µM and 1.513 µM and 0.2417 µM and 0.676 µM and 1.412 µM and 0.1537 µM and 0.3267 µM and 0.02398 µM
- concentration at 7 days post-infection ([4]; both, monkey, serum, oral, 50 mg/kg twice daily, ERDRP-0519 serum conc., therapeutic(d7) group, day 7 post-infection, individual animals): 0 nM
- Mean drug plasma concentration of all animals over the full study period ([4]; monkey, in vivo): ~ 1.6 µM
- drug accumulation on repeat-dosing ([4]; multi-dose b.i.d., 15 animals): does not result in ERDRP-0519 accumulation
